# Assay results from US20100292193A1, “RADIOPROTECTIVE DRUGS” (THE REGENTS OF THE UNIVERSITY OF CALIFORNIA, priority 2009, published 2010).
# Key:
# TiL-1 cells = assay: ROS scavenging: intracellular ROS after irradiation (DCF-DA); format: cell-based; conditions: compound added 3 h before irradiation; DCF-DA 25 μM 1 h before; measured immediately after irradiation
# Method: FIGS. 5A and 5B show the effect of CPA on ROS scavenging.
# The effect of CPA on ROS scavenging was also evaluated. […] The intracellular ROS was measured immediately after irradiation in TiL-1 cells using 2′,7′-dichlorofluorescein diacetate (DCF-DA, Invitrogen). The compound and DCF-DA probe at 25 μM was added 3 h and 1 h before irradiation, respectively.
# mice = assay: Animal survival against a lethal dose total body irradiation; format: in vivo
# Method: (§1) FIGS. 4A and 4B show the effect of CPA on animal survival against a lethal dose total body irradiation (TBI). FIG. 4A: Two oral administrations of CPA at 24 h and 1 h prior to irradiation at 8 Gy. FIG. 4B: CPA at 6 mg/kg or vehicle control was administered twice prior to irradiation as (FIG. 4A) along with un-irradiated control mice for Granulocyte-macrophage colony forming units.
# The effect of CPA on animal survival against a lethal dose total body irradiation was determined. […] This effect was most prominent with CPA treatment at 6 mg/kg showing 89% survival while only 17% of controls survived.
# bone marrow cells = assay: Granulocyte-macrophage colony forming units from bone marrow after total body irradiation; format: in vivo, mice; conditions: 6 mg/kg twice prior to irradiation; bone marrow collected 3 d after TBI, counted 8-9 d after plating; p<0.05 IR vs IR+CPA
# Method: as §1
# CPA at 6 mg/kg or vehicle control was administered twice prior to irradiation as described above along with un-irradiated control mice for Granulocyte-macrophage colony forming units.
# TiL1 cells = assay: Cell viability assay with irradiated TiL1 cells (ATPlite); format: cell-based; conditions: 2Gy, ATPlite 24 hours after irradiation, normalized to vehicle control
# Method: FIGS. 3A and 3B show radiation dose-responses of irradiated TiL1 cells treated with cyclopiazonic acid (CPA). Cell viability assay with TiL1 cells was measured using ATPlite reagent 24 h after irradiation with 2Gy. CPA was added to the cells 3 h before IR for protection (FIG. 3A) or 1 h after IR for mitigation (FIG. 3B) activities.
# Dose-responses of irradiated cells treated with cyclopiazonic acid (CPA) were determined. A cell viability assay with TiL1 cells was measured using ATPlite reagent 24 hours after irradiation with 2Gy. CPA was added to the cells 3 h before irradiation for protection (FIG. 3A), or 1 hour after irradiation mitigation (FIG. 3B) activities. The percent cell viability plotted was normalized to vehicle control value. As shown in FIGS. 3A and 3B CPA both protects and mitigates TiL1 cell from radiation damage.
Molecule,reduction of irradiation induced reactive oxygen species (TiL-1 cells),"survival (mice; 6 mg/kg oral, 24 h and 1 h prior to irradiation at 8 Gy, 17% of controls survived)",protection from radiation-induced death (mice; two oral administrations at 24 h and 1 h prior to irradiation at 8 Gy),"Gm-CFU, protection of the immunohematopoietic system (bone marrow cells)","percent cell viability, mitigation activity (TiL1 cells; CPA added 1 hour after irradiation)","percent cell viability, protection activity (TiL1 cells; CPA added 3 h before irradiation)"
"CC(C)(C)c1cc(O)c(C(C)(C)C)cc1O [di-tBHQ, 2,5-ditertbutylhydroquinone, reference compound]",did in dose-responsive manner,,,,,
cyclopiazonic acid [CPA],did not reduce,89%,protected mice from radiation-induced death,protects the immunohematopoietic system,mitigates,protects
